Results on 87 compounds are retold here after the COVID Moonshot data (paper PMC7615835).

Where “and” joins values, the source holds several entries; their conditions need not be identical. Equal entries are not always repeated.

The target in the experiment is SARS-CoV-2 Main Protease (SARS-CoV-2) (UniProt P0DTD1).
By IC50 is commonly meant the concentration that inhibits the measured activity by half. A low value points to greater potency in that assay. `N#CC1(CS(=O)(=O)N2Cc3ccc(Cl)cc3C3(CCN(c4cncc5ccc(OCCN6CCOCC6)cc45)C3=O)C2)CC1` (configuration not stated) came in with an IC50 of 0.187 µM.

Take `N#Cc1cc(Cl)ccc1Nc1cc(Cl)cc(CC(=O)Nc2cncc3ccccc23)c1`: the 50% inhibitory concentration (IC50) turned out to be 2.23 µM. `O=C(Nc1[nH]nc2cccc(F)c12)C1CCOc2ccc(Cl)cc21` (configuration not stated) came in with an IC50 greater than 99.5 µM. In the case of `CC12CC3CC(C)(C1)CC(Nc1cc(Cl)cc(CC(=O)Nc4cncc5ccccc45)c1)(C3)C2`, the IC50 was 1.58 µM. Turning to `CCC1(C(=O)Nc2cncc3ccccc23)CNC(=O)c2ccc(Cl)cc21` (configuration not stated), the IC50 amounted to 1.18 µM. The result for `O=C(NCC1=[SH]C=CC1)[C@@H](c1ccccc1)N1Cc2ccccc2C1=O` (stereo in doubt) reads greater than 99.5 µM; that for `O=C(Cc1cc(Cl)cc(Nc2c(Cl)cc(Cl)cc2Br)c1)Nc1cncc2ccccc12`, 1.63 µM. In turn, `C=CC(=O)N(c1cc(C(C)(C)C)on1)C(C(=O)NC(C)(C)C)c1cccnc1` (configuration not stated) gave an IC50 greater than 99 µM. `Cc1cc(O)ncc1NC(=O)C1CCOc2ccc(Cl)cc21` (configuration not stated): the IC50 was greater than 99.5 µM. Take `O=C(Cc1cc(Cl)cc(Nc2ccc(-n3ccnc3)cc2)c1)Nc1cncc2ccccc12`: the IC50 was determined as 2.46 µM.

For the compound `O=C(Cc1cc(Cl)cc(Nc2ncnc(Cl)c2Cl)c1)Nc1cncc2ccccc12`, the IC50 is 2.06 µM.

The compound `CCCCN1C(=O)C(=O)c2cc(Br)cc(C)c21` came in with an IC50 greater than 99.5 µM.

`COc1cccc2ncc(NC(=O)Cc3cccc(Cl)c3)n12` had an IC50 greater than 99.5 µM.

Compound `Cc1c(NC(=O)C2CCOc3ccc(Cl)cc32)cncc1N(C)C` (configuration not stated) registered an IC50 greater than 99.5 µM. For the compound `CCn1c2ccccc2c2cc(Nc3cc(Cl)cc(CC(=O)Nc4cncc5ccccc45)c3)ccc21`, the IC50 worked out at 2.73 µM.

In the case of `N#Cc1ccc(N(C(=O)c2cocn2)C(C(=O)NCCc2cccc(F)c2)c2cccnc2)cc1` (configuration not stated), the IC50 was greater than 99.5 µM. For `O=C1Cc2ccccc2N(C(=O)Cc2cccc(Cl)c2)C1`, the IC50 was greater than 99.5 µM. Turning to `O=c1[nH]c(-c2nnc[nH]2)nc2cc(-c3ccccc3Cl)sc12`, the IC50 was greater than 99.5 µM. In turn, `C=CC(=O)N[C@H](Cc1ccccc1)C(=O)NCCN(C)C` (stereo in doubt) yielded an IC50 greater than 99.5 µM. Compound `Cc1ccc(S(=O)(=O)NCCNC(=O)N2CCN(S(=O)(=O)N3CCCC3)CC2)cc1` registered an IC50 greater than 99.5 µM.

In the case of `Cc1ncc(CN2CC(C(=O)Nc3cncc4cc(S(C)(=O)=O)ccc34)c3cc(Cl)ccc3C2=O)[nH]1` (configuration not stated), the IC50 is 0.226 µM. `Cc1cnn(C)c1C(=O)N1Cc2ccc(Cl)cc2C2(CCN(c3cncc4ccccc34)C2=O)C1` (configuration not stated): the IC50 was 0.683 µM.

The compound `O=C(CCl)N1CCCN(S(=O)(=O)c2c(F)cccc2F)CC1` registered an IC50 of 20.2 µM.

For `O=C(Cc1cc(Cl)cc(Nc2c(F)cc(F)cc2Cl)c1)Nc1cncc2ccccc12`, the IC50 came out at 2.06 µM. Take `COc1ccc(-c2cc(N)n(-c3cc(Cl)cc(CC(=O)Nc4cncc5ccccc45)c3)n2)cc1`: the IC50 stood at 2.71 µM. The compound `CC(C)(C)c1ccc(N(C(=O)c2cnc(C3CCOC3)s2)C(C(=O)NCCc2cccc(F)c2)c2cccnc2)cc1` (configuration not stated) showed an IC50 greater than 99.5 µM. As to `Cn1nnnc1C1=CCN(C(=O)CC2(C(=O)Nc3cncc4ccccc34)CCOc3ccc(Cl)cc32)CC1` (configuration not stated), the IC50 worked out at 9.18 µM. Turning to `O=C(Cc1cc(Cl)cc(Nc2cc(C(F)(F)F)ccc2N2CCCC2)c1)Nc1cncc2ccccc12`, the IC50 came out at 3.51 µM. Compound `COc1cncc(C(C(=O)NCCc2cccc(F)c2)N(C(=O)c2ccco2)c2ccc(C(C)(C)C)cc2)c1C` (configuration not stated) registered a 50% inhibitory concentration (IC50) greater than 99.5 µM. `O=C(Cc1cccc(Cl)c1)Nc1n[nH]c2ccc(F)cc12`: the IC50 was greater than 99.5 µM. The result for `O=C1O[C@]2(CCOc3ccc(Cl)cc32)C(=O)N1c1cncc2ccccc12` (stereo in doubt) reads 80.9 µM and > 9.95 µM. With `COC(=O)CCSc1cc(Cl)ccc1N(C(=O)c1ccco1)C(C(=O)NCCc1cccc(F)c1)c1cccnc1` (configuration not stated), the IC50 stood at 16.6 µM.

For `CC(NC(=O)c1c(Cl)nc2ccccn12)c1nnc2ccccn12` (configuration not stated), the IC50 was greater than 99.5 µM.

Take `CC(C)(O)c1ccc2cncc(NC(=O)C3CN(S(=O)(=O)CC4(C#N)CC4)Cc4ccc(Cl)cc43)c2c1` (configuration not stated): the IC50 stood at 1.14 µM.

Take `C=CC(=O)N(c1cc(C(C)(C)C)on1)C(C(=O)NCCc1cccc(F)c1)c1cncc(O)c1` (configuration not stated): the IC50 was greater than 99.5 µM.

Consider `O=C(Cc1cccc(Cl)c1)Nc1cncc2c(Cl)cccc12`, for which the IC50 is greater than 99.5 µM.

Compound `O=C(NCCc1cccc(F)c1)C(c1cccnc1)N(C(=O)c1cocn1)C1COC2(CCCC2)C1` (configuration not stated) yielded an IC50 greater than 99.5 µM. `CC(C)(C)c1ccc(N(C(=O)c2ocnc2C(F)(F)F)C(C(=O)NCCc2cccc(F)c2)c2cccnc2)cc1` (configuration not stated) showed an IC50 greater than 99.5 µM. The result for `O=C(Cc1cc(Cl)cc(Nc2cccc(-c3ccccc3)c2)c1)Nc1cncc2ccccc12` reads 5.85 µM; that for `COc1ccc(-c2ccccc2S(=O)(=O)N2CCN(C(=O)CCl)CC2)cc1`, 0.551 µM.

On to `COC1CN(S(=O)(=O)N2Cc3ccc(Cl)cc3C3(CCN(c4cncc5ccccc45)C3=O)C2)C1` (configuration not stated), for which the half-maximal inhibitory concentration (IC50) was determined as 0.224 µM. `O=C(NCCOc1ccccc1)c1cc(=O)[nH]c2ccccc12` had an IC50 greater than 99.5 µM. To `CN(C)c1ccc(N(Cc2cscn2)C(=O)Cn2nnc3ccccc32)cc1` belongs 4.85 µM. `O=C(Cc1cc(Cl)cc(Nc2cc(Cl)c(F)cc2F)c1)Nc1cncc2ccccc12`: the IC50 was 1.74 µM.

`O=C(NCc1nnc2c(=O)[nH]ccn12)c1ccnc2ccnn12`: the IC50 was greater than 99.5 µM.

Consider `C[C@H]1C[C@@H](C(=O)Nc2cncc3ccccc23)c2cc(Cl)ccc2O1` (stereo in doubt), for which the IC50 is 20.1 µM.

In turn, `CNC(=O)CN1CC2(CC(=O)N(c3cncc4ccccc34)C2=O)c2cc(Cl)ccc2C1=O` (configuration not stated) yielded an IC50 of 0.26 µM. The compound `Cc1ccncc1NC(=O)Cc1cc(Cl)cc(NS(N)(=O)=O)c1` showed a 50% inhibitory concentration (IC50) of 11.3 µM. The result for `CC(C)(C)c1ccc(N(C(=O)c2cocn2)C(C(=O)NCCc2cccc(F)c2)c2cccnc2)cc1` (configuration not stated) reads 0.557 µM. `O=C(NCCc1cccc(F)c1)C(c1cccnc1)N(Cc1ccccc1C1CCC1)C(=O)c1ccco1` (configuration not stated) returned an IC50 of 1.93 µM. As for `CC(C(=O)Nc1cncnc1)c1ccccc1` (configuration not stated), the IC50 was greater than 99.5 µM. Take `NC(=O)c1c(Nc2cc(Cl)cc(CC(=O)Nc3cncc4ccccc34)c2)sc2c1CCCC2`: the IC50 was 2.43 µM. The result for `O=C(Cc1cc(Cl)cc(Nc2ccccc2Sc2ccccc2)c1)Nc1cncc2ccccc12` reads 2.47 µM; that for `Cc1cc(Br)cc(Nc2cc(Cl)cc(CC(=O)Nc3cncc4ccccc34)c2)c1`, 1.96 µM. Compound `Cc1ccc([N+](=O)[O-])c(Nc2cc(Cl)cc(CC(=O)Nc3cncc4ccccc34)c2)c1` registered an IC50 of 2.26 µM. The result for `Cc1ccc(C(Cc2ccccc2)C(=O)Nc2nnn3ccccc23)cc1` (configuration not stated) reads greater than 99.5 µM; that for `O=C(Cc1cccc(C(F)(F)F)c1)Nc1cncc2ccccc12`, 6.94 µM; that for `O=C(CCl)N1CCN(Cc2cc(Cl)ccc2CNC(=O)N2CCOCC2)CC1`, 3.8 µM.

`CCOC(=O)N1Cc2ccc(Cl)cc2C(C(=O)Nc2cncc3ccccc23)C1` (configuration not stated) registered a half-maximal inhibitory concentration (IC50) of 0.236 µM. On to `O=C(CCl)Nc1nc2c(S(=O)(=O)NCCc3ccccc3)cccc2s1`, for which the concentration for half-maximal inhibition (IC50) is 5.03 µM and 14.2 µM and 37.5 µM.

In turn, `C[C@@H](C(=O)Nc1cncnc1)c1ccccc1` (stereo in doubt) registered an IC50 greater than 99.5 µM. The result for `COc1ccc2cncc(NC(=O)C3CCOc4cc(F)c(Cl)cc43)c2c1` (configuration not stated) reads 0.101 µM and 0.114 µM; that for `O=C(NCCc1cccc(F)c1)C(c1cccnc1)N(C(=O)c1cocn1)c1ccc(C2(O)COC2)cc1` (configuration not stated), greater than 99.5 µM; that for `CNC(=O)CN1C[C@H](C(=O)Nc2cncc3cc(Cl)ccc23)c2cc(Cl)ccc2C1=O` (stereo in doubt), 0.149 µM. `Cc1cc(C)n(-c2cc(Cl)cc(CC(=O)Nc3cncc4ccccc34)c2)c(=O)c1CN`: the half-inhibitory concentration (IC50) came out at 2.41 µM. With `CC(C)OCc1cc(C(=O)N2CCC(C3CCNC3)CC2)ccc1F` (configuration not stated), the IC50 is greater than 99.5 µM. The result for `O=C(CN1CC2(CCN(c3cncc4ccccc34)C2=O)c2cc(Cl)ccc2S1(=O)=O)NCC1CC1` (configuration not stated) reads 0.203 µM. Consider `O=C(CC1(C(=O)Nc2cncc3ccccc23)CCOc2ccc(Cl)cc21)N1CCN(C2CCOC2)CC1` (configuration not stated), for which the IC50 came to 6.68 µM. To `Nc1nn(C(=O)Cc2cccc(Cl)c2)c2cccnc12` belongs greater than 99.5 µM; to `Cc1ccncc1NC(=O)C(C)(C)c1cccc(Cl)c1`, 95.8 µM and 98.1 µM; to `CC(=O)N(CC(=O)Nc1ccc(F)c(Cl)c1)c1cccc(Cl)c1`, greater than 99.5 µM.

Turning to `CN(Cc1nc2ccccc2s1)C(=O)c1ccc2c(c1)nnn2C`, the IC50 is greater than 99.5 µM. The result for `O=C(Nc1cncc2ccccc12)[C@@H]1CN(S(=O)(=O)CC2CS(=O)(=O)C2)Cc2ccc(Cl)cc21` (stereo in doubt) reads 8.23 µM. The result for `O=C(NCCc1cccc(F)c1)C(c1cccnc1)N(C(=O)c1cocn1)c1ccc(Cn2cccn2)cc1` (configuration not stated) reads 8.34 µM. As to `Cc1ccncc1NC(=O)Cc1cc(Cl)cc(-c2ccc(C3CC3(F)F)cc2)c1` (configuration not stated), the IC50 was 8.44 µM.

`Cc1ccncc1NC(=O)Cc1cc(Cl)cc(-c2ccc(S(C)(=O)=O)cc2Cl)c1` had a half-inhibitory concentration (IC50) greater than 99.5 µM. As for `Cn1cnc(C(=O)N(c2ccc(C(C)(C)C)cc2)C(C(=O)NCCc2cccc(F)c2)c2cccnc2)cc1=O` (configuration not stated), the concentration for half-maximal inhibition (IC50) was greater than 99.5 µM. `C[n+]1ccn(CCc2cccc(Cl)c2)c1C#N` showed an IC50 greater than 99.5 µM. Take `CC(=O)N1CCN(CC(=O)Nc2cncc3ccccc23)CC1`: the IC50 is > 99.5 µM and 51.7 µM. For the compound `CNC(=O)CN1Cc2ccc(Cl)cc2[C@]2(CCN(c3cncc4c3CCCC4)C2=O)C1` (stereo in doubt), the IC50 is greater than 99.5 µM.

Take `CN1Cc2ccc(Cl)cc2C(C(=O)Nc2cncc3ccccc23)C1` (configuration not stated): the IC50 was 2.01 µM.

Turning to `O=C(Cc1cc(Cl)cc(Nc2ccccc2OCC(F)(F)F)c1)Nc1cncc2ccccc12`, the IC50 was 1.96 µM.

`Cn1ncc2c(NCc3ccc4cccnc4c3)ncnc21` registered an IC50 greater than 99.5 µM. For `O=C(Cc1ccc(C(F)(F)F)cc1)Nc1cncc2ccccc12`, the IC50 turned out to be 24.8 µM. Take `CC(C)(C)OC(=O)N1CC(NC(=O)C(c2cccnc2)N(C(=O)c2cocn2)c2ccc(C(C)(C)C)cc2)C1` (configuration not stated): the IC50 stood at 6.91 µM. Compound `CC(C)(C)c1ccc(N(C(=O)c2coc(CS(C)(=O)=O)n2)C(C(=O)NCCc2cccc(F)c2)c2cccnc2)cc1` (configuration not stated) came in with an IC50 of 39.2 µM. On to `O=C(NNc1nc2ccccc2[nH]1)c1cc(O)nc2ccccc12`, for which the IC50 turned out to be 25.8 µM.
